# A melting point compilation (Tetko et al.; mined from patent text by program, amines drawn as free bases though some values may be those of a salt)
row,melting point,Compound
1,176 to 178 °C,Cc1noc([C@@H](Cc2ccccc2)NC(=O)[C@@H](Cc2ccc3ccccc3c2)NC(=O)c2cccc(CNC(=O)OC(C)(C)C)c2)n1
2,260 °C,CCCCc1cn(Cc2ccc(-c3ccccc3C(=O)O)cc2)c2c(c1=O)CCCC2
3,181 to 182 °C,CC(C)Sc1cc([Si](C)(C)C)oc1C(=O)Nc1nnn[nH]1
4,141 to 144 °C,CS(=O)(=O)Nc1nc(CCN2CCC(c3c[nH]c4ccccc34)CC2)cs1
5,208 to 209 °C,COc1cc2c(cc1OC)-c1ccc(OC)c(OC)c1C2=O
6,167 to 168 °C,Cc1ccc(N(c2ccccc2)c2ccc(-c3ccc(-c4ccc(N(c5ccccc5)c5ccc(C)cc5)cc4)cc3)cc2)cc1
7,111 to 113 °C,CN(C[C@H]1CC[C@H](C(=O)O)CC1)c1ncc(Br)cn1
8,277 to 281 °C,Nc1cc(-n2cc(C(=O)O)c(=O)c3cc(F)c(F)c(Cl)c32)cnc1Cl
9,90 to 92 °C,CCOC(=O)C=Cc1cc(OCc2ccccc2)ccc1-c1ccc(-c2cccc(C)c2)c(C=O)c1
10,212 to 215 °C,CN(C)c1ncc(-c2nc3cccc(CO)c3o2)cn1
11,99 to 101 °C,COC(=O)Cc1c(C(=O)OC)ccn1CCOS(C)(=O)=O
12,273 °C,Cc1cc(-c2cc(C(F)(F)F)n3ncc(-c4nc(-c5ccc(S(N)(=O)=O)cc5)no4)c3n2)ccc1C(F)(F)F
13,78 to 82 °C,O=C(C(=O)c1cccc(Br)c1)c1ccccc1
14,112 °C,CC(C)(C)OC(=O)n1c([Si](C)(C)C)cc2cnccc21
15,58 °C,COc1ccccc1CN[C@H]1CCCN(CC(=O)O)[C@H]1c1ccccc1 (relative stereo)
16,205 to 209 °C,COc1cccc(CNC(=O)c2[nH]c3ccc(Cl)cc3c2S(=O)(=O)c2nccs2)c1
17,181 to 182 °C,CCOP(=O)(Cc1ccc(NC(=O)/C=C/c2cn[nH]c2-c2ccc(F)cc2)cc1)OCC
18,92 °C,CCn1cc(-c2cccc(C(F)(F)F)c2)c(=O)n1-c1ccc(F)cc1
19,76 to 78 °C,CCCCCCCCCCCCc1nnn(C(C(=O)O)c2ccccc2)n1 (configuration not stated)
20,156 to 158 °C,CC(Oc1ncn(-c2cccc(F)c2)n1)C(N)=O (configuration not stated)
21,103 to 104 °C,COC(=O)c1scc(-c2ccccc2)c1-c1ccc(SCOC(C)=O)c(F)c1

row,melting point,Compound
1,90 to 93 °C,COC(=O)C1=C(C)NC(C)=C(C(=O)OCCN2CCN(C(c3ccc(F)cc3)c3ccc(F)cc3)CC2)C1c1ccccc1[N+](=O)[O-] (configuration not stated)
2,205 to 206 °C,Cc1nc2sc3c(NCCCN4CCCC4=O)ncnc3c2c2c1CCC(C)(C)C2
3,185 to 187 °C,Cc1cccc(Nc2ncnc3cnc(NC4CCN(C(=O)N(C)C)CC4)nc23)c1
4,157 to 160 °C,COC1SC=C(C)NC1=O (configuration not stated)
5,69 °C,CN(CCCCNC(=O)NCCCOc1cccc(CN2CCCCC2)c1)CCN(Cc1ccc(F)cc1)c1ccccn1
6,90 to 92 °C,Cc1nc(C(O)(c2ccsc2)C(F)(F)F)sc1C (configuration not stated)
7,145 to 147 °C,CC(=O)Oc1ccc(C2COc3cc(OC(C)=O)c(OC(C)=O)cc3C2)cc1 (configuration not stated)
8,145 to 146 °C,COC=C(C(=O)OC)n1ccc2ccc(-c3csc(-c4ccccc4)n3)cc21
9,194 to 196 °C,Oc1ccc2nc(-c3ccc(O)c4ccccc34)oc2c1
10,42 to 43 °C,CCOC(=O)c1ccccc1Nc1ccc(OC)cc1C
11,75 to 77 °C,COc1cccc(C(=O)Nc2nc(C)c(C(=O)NCc3ccccc3)s2)c1
12,103 to 111 °C,CCn1nnnc1C(CO)=C(c1ccc(F)cc1)c1ccc(F)cc1
13,111 to 114 °C,COC(=O)COC(=O)COc1ccc(-c2coc3cc(OCC(=O)OCC(=O)OC)ccc3c2=O)cc1
14,156 to 163 °C,Cc1nc(Nc2ccc(F)c(Cl)c2)c2nc(N3CCC(N)CC3)ncc2n1
15,171 °C,Cc1c(-c2ccc(C3=CCN(C(=O)OC(C)(C)C)CC3)cc2)nc2n1CCc1ccccc1C2OC1CCN(C)CC1 (configuration not stated)
16,94 to 97 °C,COc1c(Cl)ccc(C#N)c1F
17,66 to 68 °C,CCCCSCC(=O)c1cc2c(cc1Cl)n(C)c(=O)n2C
18,176 °C,COc1ccc(C(CO)CNC(=O)C(N)=O)cc1OC1CCCC1 (configuration not stated)
19,54 °C,COC(=O)CC1C(OC(C)=O)CC(=O)C1C(=O)OC (configuration not stated)
20,152 to 154 °C,O=Cc1cn(-c2ccc(F)cc2)c2ccc(Cl)cc12

# The remaining lines, values behind:
row,Compound,melting point
1,COc1cc2oc(=O)c(CCN3CCN(c4ccccc4OC)CC3)c(C)c2cc1OC(C)C,123 to 125 °C
2,CCOP(=O)(/C=C/c1cn(CCO)nc1OCc1ccc(OCc2nc(-c3ccco3)oc2C)c(OC)c1)OCC,95 to 96 °C
3,COc1cc2ccc(CC(=O)O)cc2cc1OC,115 to 117 °C
4,CSCCC(NC(=O)c1ccc(Cl)cc1)NC(=NC#N)Nc1cccnc1 (configuration not stated),104 to 105 °C
5,O=C(O)c1cc(F)c2cccnc2c1O,277 to 279 °C
6,O=C(Nc1ccc(Oc2ccc(CCC(=O)N3CCN(Cc4ccc5c(c4)OCO5)CC3)cc2)nc1)c1ccc(C(F)(F)F)cc1,140 to 141 °C
7,CN(C)C=CC(=O)C(=O)c1ccccc1,88 °C
8,COc1ccc(CC(=O)Nc2c(C)c(C)c3c(c2C)C(c2ccc(C(C)C)cc2)CO3)cc1 (configuration not stated),166 to 167 °C
9,C=CCN(CC=C)Cc1noc(-c2ncn3c2[C@@H]2CCN2C(=O)c2ccccc2-3)n1,147 to 150 °C
10,OCc1csc(N2CCCC2)n1,146 to 148 °C
11,CCCCn1cc(C(=O)C(=O)O)c2cc(-c3ccc(C(F)(F)F)cc3)ccc21,149 °C
12,O=CN1CCN(c2nc(Cl)nc(Cl)n2)CC1,163 to 165 °C
13,O=C(NCCC1OCCO1)c1cc(Br)c(Br)[nH]1,155 to 157 °C
14,O=C(O)CCCCCCC1(CCCCCCC(=O)O)C(=O)NC(=O)N1CCC(O)C1CCCCC1 (configuration not stated),116 to 118 °C
15,O=C(O)C1CCC2C(=O)OC(=O)C2C1 (configuration not stated),250 °C
16,C#CC1(O)CCC2C3CCC4=CCCCC4C3C(=CF)CC21C (configuration not stated),103 to 104 °C
17,O=c1cc(C=Cc2ccccc2)oc2ccc(O)cc12,230 °C
18,CCCn1c(=O)c2[nH]c(-c3ccc4c(c3)OCCO4)nc2n(Cc2ccccc2)c1=O,290 °C
19,Fc1nc(F)c(F)c(N2CCCNCC2)c1F,58 to 61 °C

row,Compound,melting point
1,CSC1=C(c2cc3ccccc3s2)N2CCN=C2S1,95 to 97 °C
2,O=C(NC1N=C(c2ccccc2)c2ccccc2NC1=O)c1ccc(-c2ccccc2)cc1 (racemic),274 to 276 °C
3,NS(=O)(=O)c1cc2[nH]c(S)nc2cc1Cl,341 to 343 °C
4,Cc1ccnc2c1C(=O)c1nccc(Cl)c1C2=O,> 300 °C
5,CC(O)c1cn(C(c2ccccc2)(c2ccccc2)c2ccccc2)cn1 (configuration not stated),156 to 157 °C
6,Cc1ccc(S(=O)(=O)N(C)NC(=O)c2c(F)cccc2Cl)cc1,135 to 136 °C
7,CCOC(=O)Nc1cc(C(=O)OC)c(O)c2ncc(Cc3ccc(F)cc3)cc12,205 to 206 °C
8,CC(=O)OC1=CC2=CCC3C(CCC4(C)C(OC(C)=O)CCC34)C2CC1 (configuration not stated),165 to 171 °C
9,COc1ccc2c(Cc3c(Cl)cncc3Cl)nnc(-c3ccccc3)c2c1,206 to 208 °C
10,CC(=O)c1ccc(OCCN2CCN(c3cc(Cl)nnc3Cl)CC2)cc1,115 to 117 °C
11,O=C(O)CC1CCCCCCCCCCC1=O (configuration not stated),124 °C
12,CC(=O)OCS(=O)(=O)c1c(F)cc(-c2c(-c3ccccc3)noc2C)cc1F,165 to 166 °C
13,CCCc1c(OCCCOc2ccc(Cl)cc2)ccc2c1OC(CCC(=O)O)(CCC(=O)O)CC2=O,133 to 134 °C
14,CC(C)(C)OC(=O)N1C(COc2noc3ccc(Cl)cc23)COC1(C)C (configuration not stated),117 to 118 °C
15,CCCN1C[C@H]2CCc3cccc(O)c3[C@H]2C1 (relative stereo),180 to 184 °C
16,Cc1oc(-c2ccccc2)nc1COc1ccc2cc(CCCC3OC(=O)NC3=O)oc2c1 (configuration not stated),159 to 160 °C
17,CC1(C)CCC(C)(C)N1CC(O)COc1cc2ccccc2c(=O)c2ccsc12 (configuration not stated),104 to 107 °C
18,NCC(O)c1ccc([N+](=O)[O-])cc1 (configuration not stated),138 to 139 °C
19,O=C1CC[N+]([O-])=C(c2ccccc2Cl)c2cc(Cl)ccc21,184 to 187 °C

row,Compound,melting point
1,CCOC(=O)C1CSC(COc2ccccc2OC)N1 (configuration not stated),50 °C
2,Nc1ccc(-c2nc(N3CCOCC3)c3sc(C(=O)NCC4CCN(c5ncc(C(=O)NO)cn5)CC4)cc3n2)cc1,232 to 238 °C
3,Cc1c(C(=O)Nc2ccc(OCC(C)C)c(C#N)c2)cnn1C,160 to 162 °C
4,CCCC(CCC)NC(=O)c1ccc2oc(OC)nc2c1,137 to 138 °C
5,CCOC(=O)C(CBr)=NOC(=O)c1ccc(Cl)cc1,82 to 84.5 °C
6,CCn1cc(-c2ccc([C@H](C)N3CC[C@](CC(C)(C)O)(c4ccc(F)cc4)OC3=O)cc2)ccc1=O,172 to 174 °C
7,CCN(CC)CCCOc1ccc(-c2cc3ccccc3o2)cc1,86 to 88 °C
8,COc1cc(O)c(C=O)cc1OC,104 to 105 °C
9,N#Cc1cnn(-c2cc(Cl)c(Cl)c(Cl)c2Cl)c1N,168 to 169 °C
10,C[C@@H]1CN(c2ccc3nc(-c4ccc(F)cc4)c(-c4ccnc5[nH]ccc45)n3n2)CCN1,285 to 287 °C
11,O=C1c2ccccc2CN1C1CCN(c2ccc(C(OCCCc3ccccc3)c3ccccc3)cc2)CC1 (configuration not stated),117 to 120 °C
12,COc1cc2c(cc1OC)CCCC(C(=O)N1CCN(Cc3cc(OC)c(OC)c(OC)c3)CC1CCCO)=C2 (configuration not stated),144 to 145 °C
13,Cn1ncc2c1C(=O)C(Cl)=C(Cl)C2=O,176 to 177 °C
14,O=C(Nc1ccc(C(=O)N2Cc3ccccc3Cc3ccccc32)cc1)c1ccccc1-c1ccccc1,224 to 225 °C
15,CC1(C)CCC(C)(C)c2cc(C(O)C(=O)Nc3ccc(C(=O)O)cc3)ccc21 (configuration not stated),220 to 221 °C
16,CC1(C)CC(=C(c2ccc(O)cc2)c2ccc(-c3ccccc3C(=O)O)cc2)CC(C)(C)C1,230 to 231 °C
17,CCOc1cc2c(Cl)ncnc2cc1OC(C)C,104 to 106 °C
18,COc1ccc(CNc2ncnc3c2ncn3C2OC(Cn3cc(Cc4ccccc4)nn3)C(O)C2O)cc1 (configuration not stated),123 to 124 °C
